Results published in publication PMC11562385 (RSC Chemical Biology, 2024).
Entries after “also recorded” stand apart in the source; their conditions may differ. Peptide text beside a SMILES is read from it.

Legend:
PD1:PDL1 interaction [1] = target: T1, PD1:PDL1 interaction (Homo sapiens, UniProt Q15116); assay: PD1/PDL1 immunoblocking ELISA (BPS Bioscience kit cat # 72005); format: binding
T1 construct: purchased BPS Bioscience 72005

PD1:PDL1 interaction [2] = target: T1, PD1:PDL1 interaction; assay: Time-course competitive inhibition of PD1:PDL1 under saturating PDL1 (1:12); format: binding; conditions: inhibitor preincubated, 3 μM; PD1:PDL1 1:12; two hours; n = 4
Procedure: Time-course experiments were repeated by preincubating the non-covalent inhibitor 2c in one case, or the covalent ADAPTins2ca and 2cb at the same concentration.

T1 sequence (Q15116 25-167 limits assumed): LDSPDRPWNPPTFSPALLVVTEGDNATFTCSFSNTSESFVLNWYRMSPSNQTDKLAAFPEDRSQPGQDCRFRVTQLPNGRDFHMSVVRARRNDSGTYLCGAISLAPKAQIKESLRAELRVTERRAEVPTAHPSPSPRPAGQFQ

Compound: CSCC[C@H](NC(=O)[C@H](CC(=O)O)NC(=O)[C@H](Cc1ccccc1)NC(=O)[C@H](CCCNC(=N)N)NC(=O)[C@H](Cc1ccc(O)cc1)NC(=O)[C@H](CC(=O)O)NC(=O)[C@H](CCCNC(=N)N)NC(=O)[C@H](CCCNC(=N)N)NC(=O)[C@H](C)NC(=O)[C@@H](NC(=O)[C@H](Cc1c[nH]c2ccccc12)NC(=O)[C@@H](N)CCCNC(=N)N)C(C)C)C(=O)NCC(=O)N[C@@H](Cc1ccccc1)C(=O)N[C@@H](CC(=O)O)C(=O)N[C@@H](Cc1ccc(O)cc1)C(=O)N[C@@H](Cc1c[nH]c2ccccc12)C(=O)N[C@H](C(=O)N[C@@H](Cc1c[nH]c2ccccc12)C(=O)N[C@@H](CCC(=O)O)C(=O)O)C(C)C [2c] (H-RWVARRDYRFDMGFDYWVWE-OH)
- EC50 (PD1:PDL1 interaction [1]; ELISA, mean of three independent experiments, read-out: EC50 Value): 249 nM
- LE (ligand efficiency) (PD1:PDL1 interaction [1]; LE = -RTln(EC50)/HA, HA = non-hydrogen atoms omitting the strap (RWV•••VWE)): 0.07
- outcome of time-course competition with excess PDL1 (PD1:PDL1 interaction [2]): fully displaced by PDL1; also recorded: easily displaced
